Measured values as given in patent US20240067632A1, “WEE1 Degrading Compounds and Uses Thereof” (Bristol-Myers Squibb Company, priority 2022, published 2024).
Read-outs that look alike come from different tables or passages of the source.

Columns and labels:
WEE1 = molecular target: T1, WEE1 (Homo sapiens, UniProt P30291+Q96SW2); experiment: WEE1-ePL degradation assay (LentiX-WEE1-ePL-GSPT1-ND cells, InCELL Hunter luminescence, 4 h); type: cell-based; settings: 293T-LentiX WEE1-ePL cells; for DC50: read-out: 293T-LentiX WEE1-ePL Degradation 4 hr (EC50)
T1 construct: C-terminal ePL-tagged (DiscoverX, Fremont, CA) full-length WEE1 expression construct; expressed in transfected cells; host or cells: LentiX-HEK293T (Invitrogen), lentiviral transduction; co-expressing GSPT1-GN (G576N, lacking the first 158 amino acids)
Summary of the method: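 Degradation EC50 was fitted by a four-parameter logistic model, with the upper limit taken from DMSO wells. Luminescence was read with InCELL Hunter reagent after 30 min at room temperature, following a 4 h, 37° C exposure of 2500 cells/well. Cells were LentiX-HEK293T carrying ePL-tagged full-length WEE1, dosed in 10 points (3-fold) from 1 or 10 uM.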

MKN45 cells = experiment: MKN45 cell proliferation assay (Cell-Titer-Glo, 120 h); type: cell-based; settings: for EC50: Homo sapiens, MKN-45, 120 h, Cell-Titer-Glo, read-out: MKN45 Cell Prolif. 120 hr (EC50); for MKN45 Cell Prolif. 120 hr (Ymin-Obs): minimal percent of DMSO control observed in the concentrations tested
Summary of the method: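 Growth inhibition was read as blank-corrected Cell-Titer-Glo luminescence expressed as percent DMSO control after 120 h at 37 C, 400 cells/well. Compounds tested in triplicate as 10-point half-log series from 1 or 10 uM, 0.1% DMSO; four-parameter fit gave EC50, and lowest observed percent control was reported as Ymin-obs.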

[1] = lower limit of the fit (0 = luciferase inhibitor, Ymax = DMSO control)
[2] = lower limit of the fit (Ymin=0 luciferase inhibitor, Ymax DMSO control)

Compound | 293T-LentiX WEE1-ePL Degradation 4 hr (Ymin) (WEE1; [1]) | DC50 (WEE1) | EC50 (MKN45 cells; growth inhibition) | MKN45 Cell Prolif. 120 hr (Ymin-Obs) (MKN45 cells) | 293T-LentiX WEE1-ePL Degradation 4 hr (Ymin) (WEE1; [2]) | EC50 (MKN45 cells)
O=C1CCC(N2Cc3cc(O[C@H]4CCN(Cc5ccc6nc(N7CCC78CCOCC8)ccc6c5)C4)ccc3C2=O)C(=O)N1 (stereo partly drawn) [3-(5-{[(3S)-1-[(2-{7-oxa-1-azaspiro[3.5]nonan-1-yl}quinolin-6-yl)methyl]pyrrolidin-3-yl]oxy}-1-oxo-2,3-dihydro-1H-isoindol-2-yl)piperidine-2,6-dione] | 33 | 6.05 nM | 3.7 nM | 7.36 | – | –
CO[C@@H]1CN(Cc2ccc3nc(C4CCOCC4)ccc3c2)C[C@H]1Oc1ccc2c(c1)CN(C1CCC(=O)NC1=O)C2=O (stereo partly drawn) [3-(5-{[(3R,4R)-4-methoxy-1-{[2-(oxan-4-yl)quinolin-6-yl]methyl}pyrrolidin-3-yl]oxy}-1-oxo-2,3-dihydro-1H-isoindol-2-yl)piperidine-2,6-dione] | 37.67 | 11.7 nM | 16.9 nM | 22.78 | – | –
COc1ccc2cc(CN3CC[C@H](Oc4ccc5c(c4)CN(C4CCC(=O)NC4=O)C5=O)C3)ccc2n1 (stereo partly drawn) [3-(5-{[(3S)-1-[(2-methoxyquinolin-6-yl)methyl]pyrrolidin-3-yl]oxy}-1-oxo-2,3-dihydro-1H-isoindol-2-yl)piperidine-2,6-dione] | 36 | 6.24 nM | 45.2 nM | 19.71 | – | –
O=C1CC[C@H](N2Cc3cc(O[C@@H]4CN(Cc5ccc6nc([C@@H]7CCOC7)ccc6c5)CC4(F)F)ccc3C2=O)C(=O)N1 [(3S)-3-(5-{[(3R)-4,4-difluoro-1-({2-[(3S)-oxolan-3-yl]quinolin-6-yl}methyl)pyrrolidin-3-yl]oxy}-1-oxo-2,3-dihydro-1H-isoindol-2-yl)piperidine-2,6-dione] | – | 8.72 nM | – | 8.017 | 30.03 | 6.36 nM
C[C@@H]1CN(Cc2ccc3nc([C@H]4CCOC(C)(C)C4)ccc3c2)C[C@H]1Oc1ccc2c(c1)CN(C1CCC(=O)NC1=O)C2=O (stereo partly drawn) [3-(5-{[(3S,4R)-1-({2-[(4S)-2,2-dimethyloxan-4-yl]quinolin-6-yl}methyl)-4-methylpyrrolidin-3-yl]oxy}-1-oxo-2,3-dihydro-1H-isoindol-2-yl)piperidine-2,6-dione] | 24.37 | 1.94 nM | 0.918 nM | 8.183 | – | –
O=C1CCC(N2Cc3cc(O[C@H]4CCN(Cc5ccc6nc(N7C[C@H]8CCO[C@H]8C7)ccc6c5)C4)ccc3C2=O)C(=O)N1 (stereo partly drawn) [3-(5-{[(3S)-1-({2-[(3aR,6aR)-hexahydro-2H-furo[2,3-c]pyrrol-5-yl]quinolin-6-yl}methyl)pyrrolidin-3-yl]oxy}-1-oxo-2,3-dihydro-1H-isoindol-2-yl)piperidine-2,6-dione] | 37 | 3.2 nM | 6.09 nM | 14.13 | – | –
CO[C@@H]1CC[C@H](c2ccc3cc(CN4CC[C@H](Oc5ccc6c(c5)CN(C5CCC(=O)NC5=O)C6=O)C4)ccc3n2)C1 (stereo partly drawn) [3-(5-{[(3S)-1-({2-[(1S,3R)-3-methoxycyclopentyl]quinolin-6-yl}methyl)pyrrolidin-3-yl]oxy}-1-oxo-2,3-dihydro-1H-isoindol-2-yl)piperidine-2,6-dione] | 29.67 | 2.07 nM | 1.61 nM | 8.776 | – | –
COC[C@H]1CC[C@H](c2ccc3cc(CN4CC[C@H](Oc5ccc6c(c5)CN(C5CCC(=O)NC5=O)C6=O)C4)ccc3n2)C1 (stereo partly drawn) [3-(5-{[(3S)-1-({2-[(1S,3S)-3-(methoxymethyl)cyclopentyl]quinolin-6-yl}methyl)pyrrolidin-3-yl]oxy}-1-oxo-2,3-dihydro-1H-isoindol-2-yl)piperidine-2,6-dione] | – | 6.8 nM | – | 8.033 | 33.9 | 2.52 nM
CC(=O)N1CCC(c2ncc3cc(CN4CC[C@H](Oc5ccc6c(c5)CN([C@H]5CCC(=O)NC5=O)C6=O)C4)ccc3n2)CC1 [(3S)-3-(5-{[(3S)-1-{[2-(1-acetylpiperidin-4-yl)quinazolin-6-yl]methyl}pyrrolidin-3-yl]oxy}-1-oxo-2,3-dihydro-1H-isoindol-2-yl)piperidine-2,6-dione] | – | 35.8 nM | – | 9.035 | 36.09 | 13.8 nM
CC1(C)CC(=O)N(c2ccc3cc(CN4CC[C@H](Oc5ccc6c(c5)CN(C5CCC(=O)NC5=O)C6=O)C4)ccc3n2)C1 (stereo partly drawn) [3-(5-{[(3S)-1-{[2-(4,4-dimethyl-2-oxopyrrolidin-1-yl)quinolin-6-yl]methyl}pyrrolidin-3-yl]oxy}-1-oxo-2,3-dihydro-1H-isoindol-2-yl)piperidine-2,6-dione] | 31 | 1.58 nM | 2.77 nM | 8.145 | – | –
CC1(C)C[C@@H](c2ccc3cc(CN4CC[C@H](Oc5ccc6c(c5)CN([C@H]5CCC(=O)NC5=O)C6=O)C4)ccc3n2)CCO1 [(3S)-3-(5-{[(3S)-1-({2-[(4S)-2,2-dimethyloxan-4-yl]quinolin-6-yl}methyl)pyrrolidin-3-yl]oxy}-1-oxo-2,3-dihydro-1H-isoindol-2-yl)piperidine-2,6-dione] | – | 1.77 nM | – | 9.025 | 24.69 | 1.34 nM
CN1CCc2cc(CN3CC[C@H](Oc4ccc5c(c4)CN(C4CCC(=O)NC4=O)C5=O)C3)cnc2C1 (stereo partly drawn) [3-(5-{[(3S)-1-[(7-methyl-5,6,7,8-tetrahydro-1,7-naphthyridin-3-yl)methyl]pyrrolidin-3-yl]oxy}-1-oxo-2,3-dihydro-1H-isoindol-2-yl)piperidine-2,6-dione] | 34 | 65.1 nM | 425 nM | 11.9 | – | –
CC(C)(O)c1ccc2cc(CN3CC[C@H](Oc4ccc5c(c4)CN(C4CCC(=O)NC4=O)C5=O)C3)ncc2c1 (stereo partly drawn) [3-(5-{[(3S)-1-{[7-(2-hydroxypropan-2-yl)isoquinolin-3-yl]methyl}pyrrolidin-3-yl]oxy}-1-oxo-2,3-dihydro-1H-isoindol-2-yl)piperidine-2,6-dione] | 31 | 5.41 nM | 16.2 nM | 7.18 | – | –
O=C1CCC(N2Cc3cc(O[C@H]4CCN(Cc5ccc6nc(N7CCCC78CCOCC8)ccc6c5)C4)ccc3C2=O)C(=O)N1 (stereo partly drawn) [3-(5-{[(3S)-1-[(2-{8-oxa-1-azaspiro[4.5]decan-1-yl}quinolin-6-yl)methyl]pyrrolidin-3-yl]oxy}-1-oxo-2,3-dihydro-1H-isoindol-2-yl)piperidine-2,6-dione] | 47 | 11.3 nM | 15.5 nM | 20.2 | – | –
O=C1CCC(N2Cc3cc(O[C@H]4CCN(Cc5cc6ccc([C@H]7CCOC7)cc6cn5)C4)ccc3C2=O)C(=O)N1 (stereo partly drawn) [3-(1-oxo-5-{[(3S)-1-({7-[(3R)-oxolan-3-yl]isoquinolin-3-yl}methyl)pyrrolidin-3-yl]oxy}-2,3-dihydro-1H-isoindol-2-yl)piperidine-2,6-dione] | 28 | 1.41 nM | 2.96 nM | 8.5 | – | –
C[C@]1(Oc2ccc3c(c2)CN(C2CCC(=O)NC2=O)C3=O)CCN(Cc2ccc3nc(C#N)ccc3c2)C1 (stereo partly drawn) [6-{[(3S)-3-{[2-(2,6-dioxopiperidin-3-yl)-1-oxo-2,3-dihydro-1H-isoindol-5-yl]oxy}-3-methylpyrrolidin-1-yl]methyl}quinoline-2-carbonitrile] | 94 | – | > 10000 nM | 80.88 | – | –
O=C1CCC(N2Cc3cc(O[C@H]4CCN(Cc5ccc6ccccc6n5)C4)ccc3C2=O)C(=O)N1 (stereo partly drawn) [3-(1-oxo-5-{[(3S)-1-[(quinolin-2-yl)methyl]pyrrolidin-3-yl]oxy}-2,3-dihydro-1H-isoindol-2-yl)piperidine-2,6-dione] | 58 | 25.6 nM | > 10000 nM | 81.45 | – | –
O=C1CCC(N2Cc3cc(O[C@H]4CCN(Cc5ccc6nc(N7CC(O)C7)ccc6c5)C4)ccc3C2=O)C(=O)N1 (stereo partly drawn) [3-(5-{[(3S)-1-{[2-(3-hydroxyazetidin-1-yl)quinolin-6-yl]methyl}pyrrolidin-3-yl]oxy}-1-oxo-2,3-dihydro-1H-isoindol-2-yl)piperidine-2,6-dione] | 34 | 14.1 nM | 26.8 nM | 13.6 | – | –
O=C1CCC(N2Cc3cc(O[C@H]4CCN(Cc5cc6ccccc6nc5C(F)(F)F)C4)ccc3C2=O)C(=O)N1 (stereo partly drawn) [3-(1-oxo-5-{[(3S)-1-{[2-(trifluoromethyl)quinolin-3-yl]methyl}pyrrolidin-3-yl]oxy}-2,3-dihydro-1H-isoindol-2-yl)piperidine-2,6-dione] | 39.87 | 29.3 nM | 257 nM | 73.03 | – | –
